Experimental data: patent publication US9458172B2, “Pyridinyl and pyrimidinyl sulfoxide and sulfone derivatives” (priority 2012, dated 2016)
Read-outs that look alike come from different tables or passages of the source.

How the values were obtained:
NAMPT = NAMPT (Homo sapiens (Human), UniProt P43490); assay: Biochemical Inhibition Assay (NAMPT enzymatic reaction, NMN quantified by mass spectrometry); conditions: 33 nM recombinant His-tagged NAMPT, 1 μM NAM, 30 min at rt
Summary of the method: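 His-tagged human NAMPT from E. coli preincubated 15 min at rt with compound in 50 mM Hepes pH 7.5, 50 mM NaCl, 5 mM MgCl2, 1 mM THP, then reacted 30 min at rt with 1 μM NAM, […] PRPP, 2.5 mM ATP. NMN quantified by RapidFire mass spectrometry, normalized to L-Cystathionine, background subtracted.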

A2780 cells = assay: In-Vitro Cell Proliferation Assay (SRB)
[1] = Homo sapiens, A2780, 72 h, read-out: Cell Proliferation (IC50)
[2] = Homo sapiens, A2780, 72 h, read-out: Cell Proliferation (IC50), A2780 cells, 72 h, sulforhodamine B

NAMPT, sequence (P43490 whole entry): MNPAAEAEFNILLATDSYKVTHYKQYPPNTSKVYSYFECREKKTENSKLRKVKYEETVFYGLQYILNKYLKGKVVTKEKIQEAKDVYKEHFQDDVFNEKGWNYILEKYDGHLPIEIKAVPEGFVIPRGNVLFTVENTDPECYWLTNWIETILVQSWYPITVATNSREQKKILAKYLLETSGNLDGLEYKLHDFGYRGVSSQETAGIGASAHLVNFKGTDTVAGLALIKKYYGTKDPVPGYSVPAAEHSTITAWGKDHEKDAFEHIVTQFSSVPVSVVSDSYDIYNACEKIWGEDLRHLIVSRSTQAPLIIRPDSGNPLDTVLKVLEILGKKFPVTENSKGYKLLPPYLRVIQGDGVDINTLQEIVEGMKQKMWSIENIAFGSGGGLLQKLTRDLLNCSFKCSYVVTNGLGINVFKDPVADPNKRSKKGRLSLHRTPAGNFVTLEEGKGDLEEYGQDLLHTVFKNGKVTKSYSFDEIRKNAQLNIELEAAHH

Structure (SMILES) | IC50 (NAMPT) | IC50 (A2780 cells; [1]) | IC50 (A2780 cells; [2]) | IC50 (A2780 cells; read-out: Cell Proliferation (IC50), A2780 cells, 72 h, sulforhodamine B)
O=C(NCc1ccc(S(=O)(=O)N2CCC(N3CCCC3)CC2)cn1)c1cc2ccncc2o1 [Example 91, Furo[2,3-c]pyridine-2-carboxylic acid [5-(4-pyrrolidin-1-yl-piperidine-1-sulfonyl)-pyridin-2-ylmethyl]-amide] | 47.4 nM | 45.7 nM | – | –
Cc1ccc(S(=O)(=O)c2ccc(CNC(=O)c3ccc4nccn4c3)nc2)cn1 [Example 92, Imidazo[1,2-a]pyridine-6-carboxylic acid [5-(6-methyl-pyridine-3-sulfonyl)-pyridin-2-ylmethyl]-amide] | 33.9 nM | – | 56.8 nM | –
CN(C)c1ncc(S(=O)(=O)c2ccc(CNC(=O)c3cc4ccncc4o3)nc2)s1 [Example 93, Furo[2,3-c]pyridine-2-carboxylic acid [5-(2-dimethylamino-thiazole-5-sulfonyl)-pyridin-2-ylmethyl]-amide] | 4.9 nM | 1.16 nM | – | –
Cc1ccc(S(=O)(=O)c2ccc(CNC(=O)c3cc4ccncc4s3)nc2)cn1 [Example 95, Thieno[2,3-c]pyridine-2-carboxylic acid [5-(6-methyl-pyridine-3-sulfonyl)-pyridin-2-ylmethyl]-amide] | 37.7 nM | 234 nM | – | –
CCS(=O)(=O)c1cccc(S(=O)(=O)c2ccc(CNC(=O)c3ccc4nccn4c3)nc2)c1 [Example 96, Imidazo[1,2-a]pyridine-6-carboxylic acid [5-(3-ethanesulfonyl-benzenesulfonyl)-pyridin-2-ylmethyl]-amide] | 19.3 nM | 38.1 nM | – | –
CN(C)c1ncc(S(=O)(=O)c2ccc(CNC(=O)N3Cc4ccncc4C3)nc2)s1 [Example 98, 1,3-Dihydro-pyrrolo[3,4-c]pyridine-2-carboxylic acid [5-(2-dimethylamino-thiazole-5-sulfonyl)-pyridin-2-ylmethyl)-amide] | 6.6 nM | 4.97 nM | – | –
Cn1cc(S(=O)(=O)c2ccc(CNC(=O)N3Cc4ccncc4C3)nc2)cn1 [Example 99, 1,3-Dihydro-pyrrolo[3,4-c]pyridine-2-carboxylic acid [5-(1-methyl-1H-pyrazole-4-sulfonyl)-pyridin-2-ylmethyl]-amide] | 54.7 nM | 1200 nM | – | –
O=C(NCc1ccc(S(=O)(=O)c2cccc(F)c2)cn1)N1Cc2ccncc2C1 [Example 100, 1,3-Dihydro-pyrrolo[3,4-c]pyridine-2-carboxylic acid [5-(3-fluoro-benzenesulfonyl)-pyridin-2-ylmethyl]-amide] | 11.1 nM | 76.6 nM | – | –
O=C(NCc1ccc(S(=O)(=O)C2CCN(C3COC3)CC2)cn1)N1Cc2ccncc2C1 [Example 104, 1,3-Dihydro-pyrrolo[3,4-c]pyridine-2-carboxylic acid [5-(1-oxetan-3-yl-piperidine-4-sulfonyl)-pyridin-2-ylmethyl]-amide] | 67.9 nM | 116 nM | – | –
CCS(=O)(=O)c1cccc(S(=O)(=O)c2ccc(CNC(=O)c3cnc4[nH]ncc4c3)nc2)c1 [Example 106, 1H-Pyrazolo[3,4-b]pyridine-5-carboxylic acid [5-(3-ethanesulfonyl-benzenesulfonyl)-pyridin-2-ylmethyl]-amide] | 135 nM | 328 nM | – | –
O=C(NCc1ccc(S(=O)(=O)c2ccc(C(F)(F)F)nc2)cn1)c1cnc2[nH]ncc2c1 [Example 107, 1H-Pyrazolo[3,4-b]pyridine-5-carboxylic acid [5-(6-trifluoromethyl-pyridine-3-sulfonyl)-pyridin-2-ylmethyl]-amide] | 731 nM | – | 1300 nM | –
CCCC(=O)N1CCC(S(=O)(=O)c2ccc(CNC(=O)N3Cc4ccncc4C3)nc2)CC1 [Example 108, 1,3-Dihydro-pyrrolo[3,4-c]pyridine-2-carboxylic acid [5-(1-butyryl-piperidine-4-sulfonyl)-pyridin-2-ylmethyl]-amide] | 27.7 nM | 358 nM | – | –
CCS(=O)(=O)c1cccc(S(=O)(=O)c2ccc(CNC(=O)c3cc4ccncc4o3)nc2)c1 [Example 109, N-[[5-(3-ethylsulfonylphenyl)sulfonyl-2-pyridyl]methyl]furo[2,3-c]pyridine-2-carboxamide] | 6.8 nM | 15.1 nM | – | –
Nc1ccc(S(=O)(=O)c2ccc(CNC(=O)c3cc4ccncc4o3)nc2)cn1 [Example 110, N-[[5-[(6-amino-3-pyridyl)sulfonyl]-2-pyridyl]methyl]furo[2,3-c]pyridine-2-carboxamide] | 13.3 nM | 25.9 nM | – | –
O=C(NCc1ccc(S(=O)(=O)C2CCN(CC(F)(F)F)CC2)cn1)c1cnc2nccn2c1 [Example 111, N-[[5-[[1-(2,2,2-trifluoroethyl)-4-piperidyl]sulfonyl]-2-pyridyl]methyl]imidazo[1,2-a]pyrimidine-6-carboxamide] | 3 nM | – | 101 nM | –
COc1cc(OC)cc(S(=O)(=O)c2ccc(CNC(=O)c3cc4ccncc4o3)nc2)c1 [Example 112, N-[[5-(3,5-dimethoxyphenyl)sulfonyl-2-pyridyl]methyl]furo[2,3-c]pyridine-2-carboxamide] | 0.99 nM | 1.06 nM | – | –
CCS(=O)(=O)c1cccc(S(=O)(=O)c2ccc(CNC(=O)N3Cc4ccncc4C3)nc2)c1 [Example 114, N-[[5-(3-ethylsulfonylphenyl)sulfonyl-2-pyridyl]methyl]-1,3-dihydropyrrolo(3,4-c]pyridine-2-carboxamide] | 2.12 nM | 134 nM | – | –
O=C(NCc1ccc([S+]([O-])c2cc(F)cc(F)c2)cn1)N1Cc2ccncc2C1 (stereo not drawn) [Example 116, N-[[5-(3,5-difluorophenyl)sulfinyl-2-pyridyl]methyl]-1,3-dihydropyrrolo[3,4-c]pyridine-2-carboxamide] | 15.5 nM | – | 8.92 nM | –
O=C(NCc1ccc([S+]([O-])C2CCN(CC(F)(F)F)CC2)cn1)c1cc2ccncc2o1 (stereo not drawn) [Example 118, N-[[5-[[1-(2,2,2-trifluoroethyl)-4-piperidyl]sulfinyl]-2-pyridyl]rnethyl]furo[2,3-c]pyridine-2-carboxamide] | 76.1 nM | – | – | 12.2 nM
O=C(NCc1ccc(S(=O)(=O)C2CCN(C3CCOCC3)CC2)cn1)N1Cc2ccncc2C1 [Example 119, N-[[5-[(1-tetrahydropyran-4 yl-4-piperidyl)sulfonyl]-2-pyridyl]methyl]-1,3-dihydropyrrolo[3,4-c]pyridine-2-carboxamide] | 37.5 nM | – | 14.5 nM | –
O=C(NCc1ccc([S+]([O-])c2cccc(C(F)(F)F)c2)cn1)N1Cc2ccncc2C1 (stereo not drawn) [Example 120, N-[[5-[3-(trifluoromethyl)phenyl]sulfinyl-2-pyridyl]methyl]-1,3-dihydropyrrolo[3,4-c]pyridine-2-carboxamide] | 11.7 nM | 7.59 nM | – | –
COCC(=O)N1CCC(S(=O)(=O)c2ccc(CNC(=O)N3Cc4ccncc4C3)nc2)CC1 [Example 121, N-[[5-[[1-(2-methoxyacetyl)-4-piperidyl]sulfonyl]-2-pyridyl]methyl]-1,3-dihydropyrrolo[3,4-c]pyridine-2-carboxamide] | 68.2 nM | 2000 nM | – | –
COCC(=O)N1CCC(S(=O)(=O)c2ccc(CNC(=O)c3cc4ccncc4o3)nc2)CC1 [Example 122, N-[[5-[[1-(2-methoxyacetyl)-4-piperidyl]sulfonyl]-2-pyridyl]methyl]furo[2,3-c]pyridine-2-carboxamide] | 103 nM | 46.3 nM | – | –
O=C(NCc1ccc(S(=O)(=O)c2cccc(N3CCOCC3)c2)cn1)c1cc2ccncc2o1 [Example 123, N-[[5-(3-morpholinophenyl)sulfonyl-2-pyridyl]methyl]furo[2,3-c]pyridine-2-carboxamide] | 21.8 nM | 19.1 nM | – | –
CS(=O)(=O)c1cccc(S(=O)(=O)c2ccc(CNC(=O)c3cc4ccncc4o3)nc2)c1 [Example 124, N-[[5-(3-methylsulfonylphenyl)sulfonyl-2-pyridyl]methyl]furo[2,3-c]pyridine-2-carboxamide] | 13 nM | 18.9 nM | – | –
O=C(NCc1ccc(S(=O)(=O)c2ccc(N3CCOCC3)nc2)cn1)N1Cc2ccncc2C1 [Example 125, N-[[5-[(6-morpholino-3-pyridyl)sulfonyl]-2-pyridyl]methyl]-1,3-dihydropyrrolo[3,4-c]pyridine-2-carboxamide] | 14 nM | 10.2 nM | – | –
O=C(NCc1ccc(S(=O)(=O)N2CCN(C3CCOCC3)CC2)cn1)N1Cc2ccncc2C1 [Example 126, N-[[5-(4-tetrahydropyran-4-ylpiperazin-1-yl)sulfonyl-2-pyridyl]methyl]-1,3-dihydropyrrolo[3,4-c]pyridine-2-carboxamide] | 68.4 nM | 56 nM | – | –
O=C(NCc1ccc(S(=O)(=O)N2CCN(C3CCOCC3)CC2)cn1)c1cc2ccncc2o1 [Example 127, N-[[5-(4-tetrahydropyran-4-ylpiperazin-1-yl)sulfonyl-2-pyridyl]methyl]furo[2,3-c]pyridine-2-carboxamide] | 49.2 nM | 31.3 nM | – | –
O=C(NCc1ccc(S(=O)(=O)C2CCN(C3CCOC3)CC2)cn1)c1cc2ccncc2o1 (stereo not drawn) [Example 128, N-[[5-[(1-tetrahydrofuran-3-yl-4-piperidyl)sulfonyl]-2-pyridyl]methyl]furo[2,3-c]pyridine-2-carboxamide] | 73 nM | 25.4 nM | – | –
O=C(NCc1ccc(S(=O)(=O)C2CCN(C3CCOC3)CC2)cn1)N1Cc2ccncc2C1 (stereo not drawn) [Example 129, N-[[5-[(1-tetrahydrofuran-3-yl-4-piperidyl)sulfonyl]-2-pyridyl]methyl]-1,3-dihydropyrrolo[3,4-c]pyridine-2-carboxamide] | 32.7 nM | 36.3 nM | – | –
